Data set [1] can be described thus: In vitro parallel artificial membrane permeability assay (PAMPA-BBB). To be noted: for Papp at 4 h: pig, PAMPA, pH 7.4; for ability to cross the BBB by passive permeation: prediction from PAMPA-BBB Pe; for BBB prediction: predictive penetration in the CNS from PAMPA-BBB Pe. The method, then: Prediction of the brain penetration was evaluated using a parallel artificial membrane permeability assay (PAMPA). Ten commercial drugs, phosphate buffer saline solution at pH 7.4 (PBS), ethanol, and dodecane were purchased from Sigma Aldrich, Across organics and Fluka. […] Filter PDVF membrane units (diameter 30 mm, pore size 0.45 μm) from Symta were used to filter the samples. A 96-well plate UV, (Thermoscientific, Varioskan Lux multimode microplate reader) was used for the UV measurements. […] Then 100 μL of this compound stock solution was taken, and 1400 μL of ethanol and 3500 μL of PBS pH 7.4 buffer were added to reach 30% of ethanol concentration in the experiment. These solutions were filtered. The acceptor 96-well microplate was filled with 180 μL of PBS:ethanol (70:30). The donor 96-well plate was coated with 4 μL of porcine brain lipid in dodecane (20 mg mL^−1), and after 5 min, 180 μL of each compound solution was added. Then 1−2 mg of every compound to be determined for their ability to pass the brain barrier were dissolved in 1500 μL of ethanol and 3500 μL of PBS pH 7.4 buffer, filtered, and then added to the donor 96-well plate. […] During this time, the compounds diffused from the donor plate through the brain lipid membrane into the acceptor plate. After incubation, the donor plate was removed. The concentration of compounds and commercial drugs in the acceptor and the donor wells was determined by UV plate reader. Every sample was analysed at three to five wavelengths, in three wells and in three independent runs. […] Ten quality control compounds (previously mentioned) of known BBB permeability were included in each experiment to validate the analysis set.

For data set [2] the following is noted: PAMPA-BBB, reported permeability; cited from earlier work. (The PAMPA barrier holds no transporters, so it reflects passive diffusion.)
Data set [3] has as its target T1, GSK-3β (Homo sapiens, UniProt P49841). The data set is described as follows: Inhibition of GSK-3β (Kinase-Glo luminescent assay). In kind it is biochemical. Also noted: purchased Millipore (Millipore Ibérica SAU). To be noted: for GSK-3 inhibition at a fixed compound concentration: fixed compound concentration of 10 μM; for IC50: mean of three independent determinations, 1 μM ATP. The method, then:
Human recombinant GSK-3β and the pre-phosphorylated polypeptide substrate were purchased from Millipore (Millipore Ibérica SAU). Kinase-Glo Luminescent Kinase Assay was obtained from Promega (Promega Biotech Ibérica, SL)[29]. ATP and all other reagents were from Sigma Aldrich (St. Louis, MO). Assay buffer contained 50 mM HEPES (pH 7.5), 1 mM EDTA, 1 mM EGTA, and 15 mM magnesium acetate.
The method of Baki et al. was followed to analyse the inhibition of GSK-3β[30]. Kinase-Glo assays were performed in assay buffer using black 96-well plates. In a typical assay, 10 μL (10 μM) of test compound (dissolved in dimethyl sulfoxide [DMSO] at 1 mM concentration and diluted in advance in assay buffer to the desired concentration) and 10 μL (20 ng) of enzyme were added to each well followed by 20 μL of assay buffer containing 25 μM substrate and 1 μM ATP. […] After 30 min incubation at 30 °C, the enzymatic reaction was stopped with 40 μL of Kinase-Glo reagent. Glow-type luminescence was recorded after 10 min using a FLUOstar Optima (BMG Labtechnologies GmbH, Offenburg, Germany) multimode reader. The activity is proportional to the difference of the total and consumed ATP. The inhibitory activities were calculated based on maximal activities measured in the absence of inhibitor.
For orientation: In Kinase-Glo more light means more ATP remaining.

Another data set concerns SH-SY5Y cells. The data set is described as follows: Okadaic acid-induced tau hyperphosphorylation cell model (MTT cell viability). The data set is classed as cell-based, human. To be noted: for cell viability (MTT test) in OA-induced neurodegeneration cell model: compound 10 µM for 1 h, then OA 30 nM for 24 h. The method, then: Human SH-SY5Y cells were grown in DMEM supplemented with 10% FBS and 1% penicillin/streptomycin at 37 °C and 5% CO2 in an incubator. SH-SY5Y cells were seeded onto 96-well plate at 60.000 cells per well. 48 h later, cells were pre-incubated with the compounds at the desired concentration for 1 h and after that time okadaic acid (OA) (Sigma Aldrich, catalogue no: 09381) was added at a concentration of 30 nM and incubated for another 24 h. Afterwards, cells were incubated with 0.5 mg mL^−1 MTT solution for at least 4 h at 37 °C and 5% CO2. Then culture media was removed and the formazan crystals attached to the bottom of the plate were dissolved with 200 µL of DMSO. Finally, UV-absorbance was measured at 595 nm in a microplate reader (Varioskan Flash Microplate reader, Thermo Scientific).
Background: Tetrazolium dyes change colour on reduction, which living cells bring about.

For data set [4], the target named is T1, GSK-3β. The data set is described as follows: Kinetic studies on GSK-3β (ADP-Glo Kinase Assay, varying ATP). To be noted: inhibitor at 0.5 and 1 μM, ATP 1 to 50 μM, GS-2 constant at 12.5 μM; Lineweaver–Burk. The data set is classed as biochemical. The method, then: To investigate the inhibitory mechanism of compounds 5 on GSK-3β, several kinetic experiments were performed using the ADP-Glo Kinase Assay. Kinetic experiments varying both ATP (from 1 to 50 μM) and the inhibitor (at 0.5 and 1 μM) concentrations were performed, while the concentration of GS-2 was kept constant at 12.5 μM.

Each structure is given as a SMILES string.

The source of these data is paper PMC6211276, “Computer-aided molecular design of pyrazolotriazines targeting glycogen synthase kinase 3” (Journal of Enzyme Inhibition and Medicinal Chemistry, 2018).

T1 sequence (P49841 whole entry): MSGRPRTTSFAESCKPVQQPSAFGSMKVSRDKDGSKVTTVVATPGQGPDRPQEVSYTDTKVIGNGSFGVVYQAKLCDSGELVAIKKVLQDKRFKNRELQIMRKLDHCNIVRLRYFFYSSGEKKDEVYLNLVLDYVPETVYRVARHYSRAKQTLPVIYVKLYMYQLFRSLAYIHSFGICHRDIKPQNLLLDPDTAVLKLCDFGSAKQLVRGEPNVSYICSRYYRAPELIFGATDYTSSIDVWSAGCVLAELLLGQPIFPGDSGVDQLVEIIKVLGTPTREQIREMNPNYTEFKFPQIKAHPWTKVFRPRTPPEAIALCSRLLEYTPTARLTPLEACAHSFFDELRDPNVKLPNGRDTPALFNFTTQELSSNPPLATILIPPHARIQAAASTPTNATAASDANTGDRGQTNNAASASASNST

For `CNCCCN1c2ccccc2CCc2ccccc21` [Desipramine, reference compound], in data set [1], the Papp at 4 h was found to be 10.4 ± 0.1 ×10⁻⁶ cm/s.

As for `CN1C(C(=O)Nc2ccccn2)=C(O)c2ccccc2S1(=O)=O` [Piroxicam], the Pe bibli. in data set [2] is on record as 2.5 10^−6 cm s^−1.

In turn, `Cn1c(=O)c2c(ncn2C)n(C)c1=O` [Caffeine, reference compound] returned a Papp at 4 h in data set [1] of 1.1 ± 0.4 ×10⁻⁶ cm/s.

`O=c1[nH]nnc2c1cnn2-c1ccc(F)cc1` [4e]: the “GSK-3 inhibition at a fixed compound concentration” value at GSK-3β [3] is “inactive”.

For the molecule `CCOC(=O)c1c2nn[nH]c(=O)c2nn1-c1ccc(Cl)cc1` [5e, ethyl 6-(4-chlorophenyl)-4-oxo-4,6-dihydro-3H-pyrazolo[4,3-d][1,2,3]triazine-7-carboxylate], the melting point is 198 °C (dec.). In addition, the concentration for half-maximal inhibition (IC50) on GSK-3β [3] came out at 3300 ± 300 nM. In data set [1], the Papp at 4 h is 2.9 ± 0.7 ×10⁻⁶ cm/s, the “ability to cross the BBB by passive permeation” value (shortened to “ability to cross the BBB”) is given as “in the limit of a positive prediction” and the BBB prediction result is given as “CNS+/−”.

With `O=c1[nH]nnc2c1cnn2-c1ccccc1` [4a], at GSK-3β [3], the “GSK-3 inhibition at a fixed compound concentration” value is “inactive”.

With `CCOC(=O)c1c2nn[nH]c(=O)c2nn1-c1ccc(Br)cc1` [5f, ethyl 6-(4-bromophenyl)-4-oxo-4,6-dihydro-3H-pyrazolo[4,3-d][1,2,3]triazine-7-carboxylate], the melting point is 195 °C (dec.). The same molecule returned an IC50 against GSK-3β [3] of 1400 ± 400 nM. For the same molecule, in data set [1], the apparent permeability coefficient (Papp) at 4 h amounted to 3.2 ± 0.1 ×10⁻⁶ cm/s, the “ability to cross the BBB” value was “would be able to cross the BBB by passive permeation” and the BBB prediction result was “CNS+ (CNS + when they present a permeability >3.1 × 10^−6 cm s^−1)”. Further, the “cell viability (MTT test) in OA-induced neurodegeneration cell model” value (from here on “cell viability (MTT test)”) in the data set with SH-SY5Y cells is reported as “able to increase the cell viability”.

For `CN(C)CCCN1c2ccccc2Sc2ccccc21` [Promazine, reference compound], the Papp at 4 h in data set [1] was 8.4 ± 0.3 ×10⁻⁶ cm/s. The Pe bibli. in data set [2] is listed as 8.8 10^−6 cm s^−1.

Take `CCOC(=O)c1c2nn[nH]c(=O)c2nn1-c1ccc(OC)cc1` [5c, ethyl 6-(4-methoxyphenyl)-4-oxo-4,6-dihydro-3H-pyrazolo[4,3-d][1,2,3]triazine-7-carboxylate]: the melting point was 194 °C (dec.). For the same molecule, the IC50 at GSK-3β [3] came out at 1700 ± 300 nM. In addition, in data set [1], the Papp at 4 h is 1.6 ± 0.5 ×10⁻⁶ cm/s and the BBB prediction entry is “CNS+/−”.

With `Cn1sc(=O)n(Cc2ccccc2)c1=O` [TDZD-8, reference compound], in the data set on SH-SY5Y cells, the “cell viability (MTT test)” value is given as “increase the cell viability”.

For `CCOC(=O)c1c2nn[nH]c(=O)c2nn1-c1ccc(I)cc1` [5g, ethyl 6-(4-iodophenyl)-4-oxo-4,6-dihydro-3H-pyrazolo[4,3-d][1,2,3]triazine-7-carboxylate], the melting point is 198 °C (dec.). It took 800 ± 200 nM to reach half-maximal inhibition at GSK-3β [3] (IC50). Further, in data set [1], the Papp at 4 h was 5 ± 1 ×10⁻⁶ cm/s, the “ability to cross the BBB” value was “would be able to cross the BBB by passive permeation” and the BBB prediction entry was “CNS+ (CNS + when they present a permeability >3.1 × 10^−6 cm s^−1)”. For the same molecule, in the data set on SH-SY5Y cells, the “cell viability (MTT test)” value is given as “able to increase the cell viability”.

On to `CCOC(=O)c1c2nn[nH]c(=O)c2nn1-c1ccc(C)cc1` [5b, ethyl 4-oxo-6-(p-tolyl)-4,6-dihydro-3H-pyrazolo[4,3-d][1,2,3]triazine-7-carboxylate], for which the melting point is 193 to 196 °C. The IC50 against GSK-3β [3] is 900 ± 100 nM. In addition, in data set [1], the Papp at 4 h came out at 2.3 ± 0.3 ×10⁻⁶ cm/s and the BBB prediction entry was “CNS+/−”. For the same molecule, the “type of inhibition on GSK-3” value at GSK-3β [4] is “ATP-competitive”. Further, the “cell viability (MTT test)” value with SH-SY5Y cells is on record as “able to increase the cell viability”.

`CCOC(=O)c1c2nn[nH]c(=O)c2nn1-c1ccccc1` [5a, ethyl 4-oxo-6-phenyl-4,6-dihydro-3H-pyrazolo[4,3-d][1,2,3]triazine-7-carboxylate] registered a melting point of 191.5 to 193 °C. Besides, 4000 ± 200 nM corresponded to half-maximal inhibition at GSK-3β [3] (IC50). Further, in data set [1], the Papp at 4 h turned out to be 1.1 ± 0.6 ×10⁻⁶ cm/s and the BBB prediction result is listed as “CNS−”.

For the molecule `CCn1cc(C(=O)O)c(=O)c2cc(F)c(N3CCNCC3)nc21` [Enoxacine, reference compound], in data set [1], the Papp at 4 h was 1.1 ± 0.6 ×10⁻⁶ cm/s.

`C=C1[C@@H](O)[C@@H]2O[C@]3(CC[C@H](/C=C/[C@@H](C)[C@@H]4CC(C)=C[C@@]5(O[C@H](C[C@@](C)(O)C(=O)O)CC[C@H]5O)O4)O3)CC[C@H]2O[C@@H]1[C@@H](O)C[C@H](C)[C@H]1O[C@@]2(CCCCO2)CC[C@H]1C` [OA, okadaic acid, reference compound]: in the data set on SH-SY5Y cells (OA at 30 nM, MTT), the “decrease in cell viability” value is “higher than 70%”.

The Papp is a coefficient for how fast a substance crosses the barrier. Read a low Papp as poor permeation. Usually IC50 stands for the concentration at which inhibition is half-maximal. Usually melting point stands for the temperature of the solid-liquid transition.
